According to the supplement of paper PMC10307832:

Assays:
Test in all cases: relative viability (nuclei count vs DMSO), 5 days (fraction); higher = more cells survive
NCI-H650 = test system: NCI-H650
Summary of the method: (§1)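 For relative viability, nuclei counts in treated wells were divided by those in vehicle wells. Lung cancer cell lines had been pin-tool dosed in 1536-well plates the day after seeding and cultured for 5 days, then fixed and stained in one step (final 0.05% Triton X-100, 1% formaldehyde, 1 ug/ml Hoechst) and imaged at 4×. Doses were one drug alone or a fixed anchor-drug dose plus five library-drug doses (not always all listed) in √10 steps, and values are duplicate-plate medians.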

NCI-H1755 = test system: NCI-H1755
Summary of the method: as §1

LXF-289 = test system: LXF-289
Summary of the method: as §1

NCI-H1395 = test system: NCI-H1395
Summary of the method: as §1

NCI-H1944 = test system: NCI-H1944
Summary of the method: as §1

A-427 = test system: A-427
Summary of the method: as §1

LU99A = test system: LU99A
Summary of the method: as §1

NCI-H2126 = test system: NCI-H2126
Summary of the method: as §1

NCI-H460 = test system: NCI-H460
Summary of the method: as §1

LOU-NH91 = test system: LOU-NH91
Summary of the method: as §1

NCI-H1666 = test system: NCI-H1666
Summary of the method: as §1

NCI-H322M = test system: NCI-H322M
Summary of the method: as §1

PC-3 [JPC-3] = test system: PC-3 [JPC-3]
Summary of the method: as §1

SK-LU-1 = test system: SK-LU-1
Summary of the method: as §1

NCI-H2170 = test system: NCI-H2170
Summary of the method: as §1

NCI-H1915 = test system: NCI-H1915
Summary of the method: as §1

HARA = test system: HARA
Summary of the method: as §1

NCI-H23 = test system: NCI-H23
Summary of the method: as §1

NCI-H441 = test system: NCI-H441
Summary of the method: as §1

NCI-H1793 = test system: NCI-H1793
Summary of the method: as §1

NCI-H2023 = test system: NCI-H2023
Summary of the method: as §1

BEN = test system: BEN
Summary of the method: as §1

LCLC-97TM1 = test system: LCLC-97TM1
Summary of the method: as §1

O=c1[nH]c2ccccc2n1C1CCN(CCCC(c2ccc(F)cc2)c2ccc(F)cc2)CC1 [Pimozide] + Cc1nc(NC(=O)N2CCC[C@H]2C(N)=O)sc1-c1ccnc(C(C)(C)C(F)(F)F)c1 [Alpelisib] (partner 2 µM)
relative viability (NCI-H650; first compound 0.08 µM): 1.04
relative viability (NCI-H650; first compound 0.253 µM): 1.05
relative viability (NCI-H650; first compound 0.8 µM): 1.09
relative viability (NCI-H650; first compound 2.53 µM): 1.07
relative viability (NCI-H650; first compound 8 µM): 1.02
relative viability (NCI-H1755; first compound 0.08 µM): 0.918
relative viability (NCI-H1755; first compound 0.253 µM): 0.885
relative viability (NCI-H1755; first compound 0.8 µM): 0.87
relative viability (NCI-H1755; first compound 2.53 µM): 0.786
relative viability (NCI-H1755; first compound 8 µM): 0.727
relative viability (LXF-289; first compound 0.08 µM): 0.97
relative viability (LXF-289; first compound 0.253 µM): 0.955
relative viability (LXF-289; first compound 0.8 µM): 1.01
relative viability (LXF-289; first compound 2.53 µM): 1.02
relative viability (LXF-289; first compound 8 µM): 0.945
relative viability (NCI-H1395; first compound 0.08 µM): 1.31
relative viability (NCI-H1395; first compound 0.253 µM): 0.958
relative viability (NCI-H1395; first compound 0.8 µM): 1.06
relative viability (NCI-H1395; first compound 2.53 µM): 1.16
relative viability (NCI-H1395; first compound 8 µM): 0.952
relative viability (NCI-H1944; first compound 0.08 µM): 0.654
relative viability (NCI-H1944; first compound 0.253 µM): 0.817
relative viability (NCI-H1944; first compound 0.8 µM): 0.815
relative viability (NCI-H1944; first compound 2.53 µM): 0.824
relative viability (NCI-H1944; first compound 8 µM): 0.81
relative viability (A-427; first compound 0.08 µM): 1.08
relative viability (A-427; first compound 0.253 µM): 1.05
relative viability (A-427; first compound 0.8 µM): 1.14
relative viability (A-427; first compound 2.53 µM): 0.987
relative viability (A-427; first compound 8 µM): 1.01
relative viability (LU99A; first compound 0.08 µM): 0.397
relative viability (LU99A; first compound 0.253 µM): 0.424
relative viability (LU99A; first compound 0.8 µM): 0.42
relative viability (LU99A; first compound 2.53 µM): 0.484
relative viability (LU99A; first compound 8 µM): 0.477
relative viability (NCI-H2126; first compound 0.08 µM): 0.756
relative viability (NCI-H2126; first compound 0.253 µM): 0.734
relative viability (NCI-H2126; first compound 0.8 µM): 0.729
relative viability (NCI-H2126; first compound 2.53 µM): 0.758
relative viability (NCI-H2126; first compound 8 µM): 0.757
relative viability (NCI-H460; first compound 0.08 µM): 0.476
relative viability (NCI-H460; first compound 0.253 µM): 0.428
relative viability (NCI-H460; first compound 0.8 µM): 0.472
relative viability (NCI-H460; first compound 2.53 µM): 0.487
relative viability (NCI-H460; first compound 8 µM): 0.493
relative viability (LOU-NH91; first compound 0.08 µM): 0.459
relative viability (LOU-NH91; first compound 0.253 µM): 0.731
relative viability (LOU-NH91; first compound 0.8 µM): 0.723
relative viability (LOU-NH91; first compound 2.53 µM): 0.733
relative viability (LOU-NH91; first compound 8 µM): 0.7
relative viability (NCI-H1666; first compound 0.08 µM): 0.948
relative viability (NCI-H1666; first compound 0.253 µM): 1.01
relative viability (NCI-H1666; first compound 0.8 µM): 0.886
relative viability (NCI-H1666; first compound 2.53 µM): 0.874
relative viability (NCI-H1666; first compound 8 µM): 0.728
relative viability (NCI-H322M; first compound 0.253 µM): 0.835
relative viability (NCI-H322M; first compound 0.8 µM): 0.819
relative viability (NCI-H322M; first compound 2.53 µM): 0.695
relative viability (NCI-H322M; first compound 8 µM): 0.716
relative viability (PC-3 [JPC-3]; first compound 0.253 µM): 0.964
relative viability (PC-3 [JPC-3]; first compound 0.8 µM): 0.978
relative viability (PC-3 [JPC-3]; first compound 2.53 µM): 0.961
relative viability (PC-3 [JPC-3]; first compound 8 µM): 0.96
relative viability (SK-LU-1; first compound 0.08 µM): 0.961
relative viability (SK-LU-1; first compound 0.253 µM): 0.986
relative viability (SK-LU-1; first compound 0.8 µM): 0.926
relative viability (SK-LU-1; first compound 2.53 µM): 0.719
relative viability (SK-LU-1; first compound 8 µM): 0.649
relative viability (NCI-H2170; first compound 0.08 µM): 0.753
relative viability (NCI-H2170; first compound 0.253 µM): 0.792
relative viability (NCI-H2170; first compound 0.8 µM): 0.822
relative viability (NCI-H2170; first compound 2.53 µM): 0.74
relative viability (NCI-H2170; first compound 8 µM): 0.714
relative viability (NCI-H1915; first compound 0.08 µM): 1.1
relative viability (NCI-H1915; first compound 0.253 µM): 1.06
relative viability (NCI-H1915; first compound 0.8 µM): 0.837
relative viability (NCI-H1915; first compound 2.53 µM): 1.08
relative viability (NCI-H1915; first compound 8 µM): 0.997
relative viability (HARA; first compound 0.08 µM): 0.718
relative viability (HARA; first compound 0.253 µM): 0.829
relative viability (HARA; first compound 0.8 µM): 0.565
relative viability (HARA; first compound 2.53 µM): 0.675
relative viability (HARA; first compound 8 µM): 0.728
relative viability (NCI-H23; first compound 0.08 µM): 0.577
relative viability (NCI-H23; first compound 0.253 µM): 0.575
relative viability (NCI-H23; first compound 0.8 µM): 0.718
relative viability (NCI-H23; first compound 2.53 µM): 0.68
relative viability (NCI-H23; first compound 8 µM): 0.745
relative viability (NCI-H441; first compound 0.08 µM): 1.05
relative viability (NCI-H441; first compound 0.253 µM): 0.733
relative viability (NCI-H441; first compound 0.8 µM): 0.854
relative viability (NCI-H441; first compound 2.53 µM): 0.574
relative viability (NCI-H441; first compound 8 µM): 0.442
relative viability (NCI-H1793; first compound 0.08 µM): 0.491
relative viability (NCI-H1793; first compound 0.253 µM): 0.567
relative viability (NCI-H1793; first compound 0.8 µM): 0.988
relative viability (NCI-H1793; first compound 2.53 µM): 0.665
relative viability (NCI-H1793; first compound 8 µM): 0.87
relative viability (NCI-H2023; first compound 0.08 µM): 0.524
relative viability (NCI-H2023; first compound 0.253 µM): 0.632
relative viability (NCI-H2023; first compound 0.8 µM): 0.533
relative viability (NCI-H2023; first compound 2.53 µM): 0.535
relative viability (NCI-H2023; first compound 8 µM): 0.461
relative viability (BEN; first compound 0.08 µM): 1.08
relative viability (BEN; first compound 0.253 µM): 1.09
relative viability (BEN; first compound 0.8 µM): 0.961
relative viability (BEN; first compound 2.53 µM): 0.937
relative viability (BEN; first compound 8 µM): 1.06
relative viability (LCLC-97TM1; first compound 0.08 µM): 0.28
relative viability (LCLC-97TM1; first compound 0.253 µM): 0.239
relative viability (LCLC-97TM1; first compound 0.8 µM): 0.207
relative viability (LCLC-97TM1; first compound 2.53 µM): 0.224
relative viability (LCLC-97TM1; first compound 8 µM): 0.271
